Data on one compound can be found in paper PMC11881343, “Safety of ilunocitinib tablets (Zenrelia™) after once daily oral administration in dogs” (BMC Veterinary Research, 2025).

In series [1] the test system is leukocyte subsets (T, Th, Tc, B lymphocytes, monocytes). The series is described as follows: Peripheral blood immunophenotyping by flow cytometry. Conditions: either sex at any dose level. It counts as in vivo, dog. The source says:
Whole blood samples were also collected from the jugular vein for the evaluation of the leukocyte subsets and phenotypes on study days − 16 and − 8, and on study days 29, 57, 85, 113, 141, 169 and 183. The immunophenotype profiling by flow cytometry included total T lymphocytes (CD45 + CD5 + or CD5 + T cells), Helper T lymphocytes (CD45 + CD5 + CD4 + or CD4 + Th cells), Cytotoxic T lymphocytes (CD45 + CD5 + CD8 + or CD8 + Tc cells), B lymphocytes (CD45 + CD5- CD21 + or CD21 + B cells) and monocytes (CD45 + CD14+).
For immunophenotyping/peripheral blood leukocytes, a generalized linear mixed model for repeated measures analysis of variance (mixed model) was conducted. For each endpoint, the model tested for the effects of treatment, time, sex and all two and three-way interactions. The last available pre-treatment value was included in the model as a covariate. The evaluation proceeded as described for RMANCOVA.
A general note: Flow cytometry measures light scatter and fluorescence of single cells or particles in a stream.

The conditions of series [2]: dog, in vivo.
Description: Samples were collected at pre-dose and at 0.5, 1, 2, 5, 8 and 24 h post-dosing on the day of the first and last dose (study days 1 and 182) and at pre-dose and at 1 and 24 h post-dosing at study day 85. Blood samples were collected in tubes containing K2 EDTA. Blood was processed to plasma within one hour of collection and plasma samples were stored frozen at -20 °C until analyzed.
The bioanalytical data were processed as individual concentration vs. time profiles using a non-compartmental analysis (NCA). Calculations were performed with the software Phoenix WinNonlin (version 8.3; Certara, USA). Tmax and Cmax were derived from observed values. AUCs were calculated using the Linear Up Log Down method. In addition, T1/2 was calculated using the best fit method and dose, time and sex effects were evaluated based on Cmax and AUClast ratios.
For series [3] the following is noted: tablets, dogs; no reference given; cited from earlier work.
Series [4] deals with healthy Beagle dogs. The series is described as follows: 6-month safety study: organ weights, gross and microscopic examinations. Conditions: 5X group.
Description: At study termination (study day 183), the dogs were humanely euthanized by an intravenous injection of pentobarbital sodium/phenytoin solution under sedation with 6.6–13.2 mg/kg Telazol® (tiletamine/zolazepam) subcutaneous injection. Gross and microscopic examinations were carried out on all animals by a board-certified veterinary pathologist.

As to `N#CCC1(n2cc(-c3ncnc4[nH]ccc34)cn2)CN(S(=O)(=O)C2CC2)C1` [ilunocitinib], the “effects on leukocyte analysis (immunophenotyping) parameters” value in series [1] is recorded as “no test article-related effects”. Also, in series [2], the half-life result is listed as “approximately 3 h” and the “increase of exposure with dose” value is reported as “close to dose proportional”. In addition, in series [3], the “increase in oral bioavailability when given with food or after feeding” value is ~20%. In series [4], the “Prostate weight, prostate weight as a percent of body weight and ratio of prostate weight to brain weight vs controls” value is on record as “significantly decreased”.
